The results in this text go back to ChEMBL document CHEMBL3351662, “Synthesis, bioassay, and QSAR study of bronchodilatory active 4H-pyrano[3,2-c]pyridine-3-carbonitriles” (Eur J Med Chem, 2015).

The nature of this test: Bronchodialatory activity in guinea pig trachea assessed as reduction of histamine-induced contracture. The test is classed as functional, tissue-based, Cavia porcellus.
As to `COc1ccc([C@@H]2C(C#N)=C(N)O[C@]3(OC)CCN(C)C[C@@H]23)cc1`, the IC50 was found to be 23.1 µM.
With `CCN1CC[C@@]2(OC)OC(N)=C(C#N)[C@@H](c3ccc(Cl)cc3Cl)[C@@H]2C1` the figure was 27.1 µM.
Take `CO[C@@]12CCN(C)C[C@H]1[C@H](c1ccccc1)C(C#N)=C(N)O2`: the IC50 was 19.8 µM.
Under `CCCN1CC[C@@]2(OC)OC(N)=C(C#N)[C@@H](c3ccc(Br)cc3)[C@@H]2C1` stands 19.4 µM; under `COc1ccc([C@@H]2C(C#N)=C(N)O[C@]3(OC)CCN(Cc4ccccc4)C[C@@H]23)cc1`, 23.1 µM; under `CCN1CC[C@@]2(OC)OC(N)=C(C#N)[C@@H](c3ccccc3)[C@@H]2C1`, 23.4 µM.
With `CO[C@@]12CCN(C)C[C@H]1[C@H](c1ccc(-c3cccs3)cc1)C(C#N)=C(N)O2` the figure was 13.8 µM.
With `COc1ccc([C@@H]2C(C#N)=C(N)O[C@]3(OC)CCN(Cc4ccccc4)C[C@@H]23)cc1OC` the figure was 21.9 µM; with `CO[C@@]12CCN(C)C[C@H]1[C@H](c1ccc(N3CCCCC3)cc1)C(C#N)=C(N)O2`, 19 µM; with `CCCN1CC[C@@]2(OC)OC(N)=C(C#N)[C@@H](c3ccc(Cl)cc3)[C@@H]2C1`, 30.3 µM.
With `CO[C@@]12CCN(Cc3ccccc3)C[C@H]1[C@H](c1ccc(F)cc1)C(C#N)=C(N)O2`, the IC50 is 17.2 µM.
Under `CO[C@@]12CCN(C)C[C@H]1[C@H](c1ccc(N3CCOCC3)cc1)C(C#N)=C(N)O2` stands 20.2 µM; under `CCN1CC[C@@]2(OC)OC(N)=C(C#N)[C@@H](c3ccc(-c4cccs4)cc3)[C@@H]2C1`, 19.8 µM.
As to `CO[C@@]12CCN(Cc3ccccc3)C[C@H]1[C@H](c1ccccc1)C(C#N)=C(N)O2`, the IC50 came out at 22.6 µM.
Regarding `CO[C@@]12CCN(C)C[C@H]1[C@H](c1ccc(Br)cc1)C(C#N)=C(N)O2`, the IC50 was found to be 7.9 µM.
`CCN1CC[C@@]2(OC)OC(N)=C(C#N)[C@@H](c3ccc(OC)c(OC)c3)[C@@H]2C1`: the IC50 was 23.2 µM.
On to `CO[C@@]12CCN(Cc3ccccc3)C[C@H]1[C@H](c1ccc(Cl)cc1Cl)C(C#N)=C(N)O2`, for which the IC50 was found to be 18.3 µM.
Under `CCN1CC[C@@]2(OC)OC(N)=C(C#N)[C@@H](c3ccc(N4CCOCC4)cc3)[C@@H]2C1` stands 28.7 µM.
As to `CO[C@@]12CCN(Cc3ccccc3)C[C@H]1[C@H](c1ccc3ccccc3c1)C(C#N)=C(N)O2`, the IC50 amounted to 23.4 µM.
With `CO[C@@]12CCN(Cc3ccccc3)C[C@H]1[C@H](c1ccc(N3CCOCC3)cc1)C(C#N)=C(N)O2` the figure was 25.4 µM.
Under `CCCN1CC[C@@]2(OC)OC(N)=C(C#N)[C@@H](c3ccccc3)[C@@H]2C1` stands 20.7 µM.
With `CCN1CC[C@@]2(OC)OC(N)=C(C#N)[C@@H](c3ccc(OC)cc3)[C@@H]2C1` the figure was 25.5 µM; with `Cn1c(=O)c2nc[nH]c2n(C)c1=O` [THEOPHYLLINE], 19.9 µM; with `CCN1CC[C@@]2(OC)OC(N)=C(C#N)[C@@H](c3ccc(Cl)cc3)[C@@H]2C1`, 14.9 µM.
With `CO[C@@]12CCN(C)C[C@H]1[C@H](c1ccc(C)cc1)C(C#N)=C(N)O2`, the IC50 worked out at 13.2 µM.
As to `CCCN1CC[C@@]2(OC)OC(N)=C(C#N)[C@@H](c3ccc(Cl)cc3Cl)[C@@H]2C1`, the IC50 amounted to 35.5 µM.
With `CCCN1CC[C@@]2(OC)OC(N)=C(C#N)[C@@H](c3ccc(C)cc3)[C@@H]2C1` the figure was 21 µM.
Under `CO[C@@]12CCN(C)C[C@H]1[C@H](c1ccc3ccccc3c1)C(C#N)=C(N)O2` stands 24.2 µM; under `CCN1CC[C@@]2(OC)OC(N)=C(C#N)[C@@H](c3ccc(C)cc3)[C@@H]2C1`, 16.8 µM.
With `CCCN1CC[C@@]2(OC)OC(N)=C(C#N)[C@@H](c3ccc4ccccc4c3)[C@@H]2C1` the figure was 37.1 µM; with `CO[C@@]12CCN(Cc3ccccc3)C[C@H]1[C@H](c1ccc(C)cc1)C(C#N)=C(N)O2`, 27.1 µM; with `CO[C@@]12CCN(Cc3ccccc3)C[C@H]1[C@H](c1ccc(Cl)cc1)C(C#N)=C(N)O2`, 18.5 µM.
As to `CO[C@@]12CCN(C)C[C@H]1[C@H](c1ccc(F)cc1)C(C#N)=C(N)O2`, the IC50 worked out at 19.4 µM.
For the molecule `CO[C@@]12CCN(C)C[C@H]1[C@H](c1ccc(Cl)cc1Cl)C(C#N)=C(N)O2`, the IC50 amounted to 14.9 µM.
With `CO[C@@]12CCN(C)C[C@H]1[C@H](c1ccc(Cl)cc1)C(C#N)=C(N)O2`, the IC50 amounted to 10.5 µM.
With `CCN1CC[C@@]2(OC)OC(N)=C(C#N)[C@@H](c3ccc4ccccc4c3)[C@@H]2C1` the figure was 28.3 µM; with `CCCN1CC[C@@]2(OC)OC(N)=C(C#N)[C@@H](c3ccc(OC)cc3)[C@@H]2C1`, 21.3 µM; with `CCCN1CC[C@@]2(OC)OC(N)=C(C#N)[C@@H](c3ccc(F)cc3)[C@@H]2C1`, 29.6 µM.
For the molecule `CCN1CC[C@@]2(OC)OC(N)=C(C#N)[C@@H](c3ccc(N4CCCCC4)cc3)[C@@H]2C1`, the IC50 is 13.8 µM.
With `CCN1CC[C@@]2(OC)OC(N)=C(C#N)[C@@H](c3ccc(Br)cc3)[C@@H]2C1` the figure was 13.2 µM; with `CCCN1CC[C@@]2(OC)OC(N)=C(C#N)[C@@H](c3ccc(OC)c(OC)c3)[C@@H]2C1`, 24.7 µM.
Under `COc1ccc([C@@H]2C(C#N)=C(N)O[C@]3(OC)CCN(C)C[C@@H]23)cc1OC` stands 19.1 µM.

For orientation: IC50 means the concentration that gives 50% inhibition.
